In patent US5254549A, “New BHT ether compounds and their use as hypolipidemic and antiatherosclerotic drugs” (Merz & Co. GmbH & Co., priority 1991, dated 1993):
Read-outs that look alike come from different tables or passages of the source.

Key:
[1] = system: Smooth muscle cells from the aorta of balloon-catheterized rats; assay: Antiproliferative effect on smooth muscle cells in vitro; assay type: cell-based; settings: Rattus norvegicus, 72 h; 5×10^-5 M, 3 days, versus vehicle-treated control; read-out: Mean change (Δ mean reduction) of the number of smooth vascular muscle cells
Method: Smooth muscle cells, obtained after isolation from the aorta of balloon-catheterized rats, were cultivated in DMEM under addition of 10% of fetal calf serum and subject to passages.
For the assay 10,000 cells of one passage were inoculated per dish and incubated for 3 days with vehicle (namely DMSO, 0.5% final concentration) or test compound (5×10^-5 M) 4 h after innoculation. After 3 days a cell count was made. Six preparations-Were tested per test compound.
Table 5: Mean change (Δ mean reduction) in percent of the number of smooth vascular muscle cells after incubation with test substance for 3 days as compared to vehicle-treated control preparation.

[2] = Trilinolenine assay of antioxidant properties (TBA-reactive material); assay type: biochemical; settings: 5×10^-5 M, 3 h at 37° C., versus vehicle-treated control; 50 µM
Method: (§1) The antioxidant properties of the compounds according to the invention were studied in in-vitro tests. In these tests the substance was incubated with the substrate to be oxidized (synthetic triglyceride with unsaturated fatty acids, i.e., trilinolenine or human LDL). After the incubation period, the degree of oxidation was determined using the so called thiobarbituric acid (TBA) assay. TBA reacts with malondialdehyde (MDA), which is one of the essential oxidation products. The reaction product was assayed photometrically.
400 μl of trilinolenine was incubated for 3 h at 37° C. with 2 ml HAM F 10 medium with vehicle (namely, ethanol, 0.5% final concentration) or test substance (concentration: 5×10^-5 M) (oxidation is effected without special catalysts).
The total TBA-reactive material was determined in 1 ml of the incubate by adding 1.5 ml of 0.67% TBA solution to 0.05 N NAOH and 1.5 ml to a 20% trichloroacetic acid solution. The mixture was reacted for 60 min. on a boiling water bath. After cooling, absorption was determined at 532 nm.
(§2) Three preparations were tested per test compound.
(§3) Tables 3a (trilinolenine assay) and 3b (LDL assay) represent the mean changes in percent as compared to solvent control.
(§4) Table 3: mean change (Δ mean reduction) in percent of the concentration of TBA-reactive material after 3-h (a: trilinolenine assay) and 24-h (b: LDL assay) incubation versus vehicle-treated control preparation.

[3] = system: Human endothelial cells of the umbilical vein; assay: Endothelial protection against cytotoxic effects of oxidized LDL; assay type: cell-based; settings: 2×10^-5 M, 24 h at 37° C., LDL 200 μg/ml; for Mean change (Δ mean reduction) of the concentration of TBA-reactive material after incubation of endothelial cells with LDL: versus control preparation 1 (vehicle + LDL), 20 µM; for viability at 20 µM: Homo sapiens, Endothelial cell, control preparation 2 without LDL = 100%, read-out: Mean number of endothelial cells after incubation with LDL as compared to control preparation 2
Method: Human endothelial cells of the umbilical vein were isolated after collagenase vascular treatment and cultured.
For the assay the cells were dispersed in a density of 50,000 per dish and cultivated for 4 days with Ham's F 12/DMEM medium (ratio: 4:1) under addition of 15% fetal calf serum, 5% horse serum and 10 ng/ml ECGF heparin.
After 4 days the cells were washed with serum-free medium and used in the cytotox assay.
For this assay the cells were incubated f or 24 h at 37° C. in 1 ml of Ham's F 10 medium (+ECGF heparin) with LDL (200 μg/ml). During this time period either the vehicle, namely, ethanol, 0.5% final concentration (control preparation 1) or the test substance (2×10^-5 M) was present. In parallel, one preparation was incubated without LDL and without any other substance and with vehicle (0.5% ethanol) to assess the maximum proliferation rate (control preparation 2).
After 24 h the resultant TBA-reactive material was determined in the medium or the number of cells counted.
as §2
Table 4a represents the mean changes in percent versus appropriate control preparation 1.
Table 4a: Mean change (Δ mean reduction) in percent of the concentration of TBA-reactive material after incubation of endothelial cells for 24 h with LDL versus appropriate control preparation 1.
Table 4b: Mean number of cells in percent after 24-h incubation with LDL as compared to appropriate control preparation 2.

triglycerides = assay: Lipid-lowering properties in fasting normolipidemic rats (serum triglycerides, GPO-PAP method); assay type: in vivo; settings: rat, single oral dose 0.2 mmol/kg, read-out: Mean change (Δ mean reduction) of triglyceride concentrations versus vehicle-treated control
Method: The lipid-lowering properties of the compounds according to the invention were investigated in a rat model. In this model a single dose (0.2 mmol/kg) of the test substance was administered to fasting normolipidemic rats by the oral route. 240 and 360 minutes after application, blood samples were taken, the concentrations of triglycerides being assessed by a standard method (namely GPO-PAP method, E. Merck-system, Darrdstadt, Germany) (n=5 rats per measurement time).
In Table 2 the mean changes are given in percent as compared to a solvent (cremophor, 30% in aqua dest) control.
Table 2: Mean changes (Δ mean reduction) in percent of triglyceride concentrations 240 and 360 minutes after a single application versus vehicle-treated control.

human LDL = assay: LDL assay of antioxidant properties (TBA-reactive material); assay type: biochemical; settings: 5×10^-5 M, 24 h, 10 μM Cu^2+, versus vehicle-treated control; 50 µM
Method: as §1
LDL (d=1.019-1.063) was obtained from human plasma by ultracentifugation under addition of EDTA.
100 μg of LDL was incubated with 0. 5 ml of HAM F 10 medium for 24 h at […] with vehicle (namely ethanol, 0. 5% final concentration) or test substance (concentration: 5×10^-5 M) in the presence of 10 μM of Cu^2+.
The total TBA-reactive material was determined in accordance with the trilinolenine assay.
as §2, §3, §4

[4] = Kinetics of nicotinic acid released from the compounds in fasting normolipidemic rats (GC/MS in serum); assay type: in vivo, rat; settings: general statement
Method: The kinetics of nicotinic acid released from the compounds under investigation was studied in the rat. A single dose (0.2 mmol/kg) of the test substance was administered to fasting normolipidemic rats by gavage. 240 and 360 minutes thereafter, blood samples were taken and the concentration of nicotinic acid in serum was determined using a GC/MS method (n=5 rats per time). Table 1: Concentration of nicotinic acid (mg/1) in pooled serum samples after a single application of drug.

CC(C)(C)c1cc(CCCOCc2cccnc2)cc(C(C)(C)C)c1O [3/124, 2,6-Di-tert-butyl-4-(5-(3-pyridyl)-4-oxapentyl]phenol]
inhibition at 50 µM [1]: 71% | Mean change (Δ mean reduction) of the concentration of TBA-reactive material, trilinolenine assay [2]: 76% | Mean change (Δ mean reduction) of the concentration of TBA-reactive material after incubation of endothelial cells with LDL [3]: 57% | viability at 20 µM [3]: 118% | inhibition in vivo at 200 µmol/kg (triglycerides; 4 h, Time 240'): 73% | inhibition in vivo at 200 µmol/kg (triglycerides; 6 h, Time 360'): 76% | Mean change (Δ mean reduction) of the concentration of TBA-reactive material, LDL assay (human LDL): 90%

CC(C)(C)c1cc(COCc2cccnc2)cc(C(C)(C)C)c1O [3/156]
levels of nicotinic acid (in words) [4]: excessively high levels of nicotinic acid

CC(C)(C)c1cc(COCCCCCCc2cccnc2)cc(C(C)(C)C)c1O [3/161, 2,6-Di-tert-butyl-4-[8-(3-pyridyl)-2-oxaoctyl]phenol]
inhibition at 50 µM [1]: 98% | Mean change (Δ mean reduction) of the concentration of TBA-reactive material, trilinolenine assay [2]: 58% | Mean change (Δ mean reduction) of the concentration of TBA-reactive material after incubation of endothelial cells with LDL [3]: 64% | viability at 20 µM [3]: 107% | inhibition in vivo at 200 µmol/kg (triglycerides; 4 h, Time 240'): 60% | inhibition in vivo at 200 µmol/kg (triglycerides; 6 h, Time 360'): 67% | Mean change (Δ mean reduction) of the concentration of TBA-reactive material, LDL assay (human LDL): 79%

CC(C)(C)c1cc(COCCCCC#Cc2cccnc2)cc(C(C)(C)C)c1O [3/179, 2,6-Di-tert-butyl-4-[8-(3-pyridyl)-2-oxaoct-7-ynyl]phenol]
inhibition at 50 µM [1]: 55% | Mean change (Δ mean reduction) of the concentration of TBA-reactive material, trilinolenine assay [2]: 79% | Mean change (Δ mean reduction) of the concentration of TBA-reactive material after incubation of endothelial cells with LDL [3]: 43% | viability at 20 µM [3]: 76% | inhibition in vivo at 200 µmol/kg (triglycerides; 4 h, Time 240'): 57% | inhibition in vivo at 200 µmol/kg (triglycerides; 6 h, Time 360'): 70% | Mean change (Δ mean reduction) of the concentration of TBA-reactive material, LDL assay (human LDL): 73%

CC(C)(C)c1cc(COCCCC/C=C\c2cccnc2)cc(C(C)(C)C)c1O [3/181, (Z)-2,6-Di-tert-butyl-4-(8-(3-pyridyl)-2-oxaoct-7-enyl]-phenol]
inhibition at 50 µM [1]: 81% | Mean change (Δ mean reduction) of the concentration of TBA-reactive material, trilinolenine assay [2]: 76% | Mean change (Δ mean reduction) of the concentration of TBA-reactive material after incubation of endothelial cells with LDL [3]: 65% | viability at 20 µM [3]: 122% | inhibition in vivo at 200 µmol/kg (triglycerides; 4 h, Time 240'): 57% | inhibition in vivo at 200 µmol/kg (triglycerides; 6 h, Time 360'): 57% | Mean change (Δ mean reduction) of the concentration of TBA-reactive material, LDL assay (human LDL): 76%

CC(C)(C)c1cc(COCCCCc2cccnc2)cc(C(C)(C)C)c1O [3/187, 2,6-Di-tert-butyl-4-[6-(3-pyridyl)-2-oxahexyl]phenol]
inhibition at 50 µM [1]: 93% | Mean change (Δ mean reduction) of the concentration of TBA-reactive material, trilinolenine assay [2]: 71% | Mean change (Δ mean reduction) of the concentration of TBA-reactive material after incubation of endothelial cells with LDL [3]: 53% | viability at 20 µM [3]: 80% | inhibition in vivo at 200 µmol/kg (triglycerides; 4 h, Time 240'): 65% | inhibition in vivo at 200 µmol/kg (triglycerides; 6 h, Time 360'): 55% | Mean change (Δ mean reduction) of the concentration of TBA-reactive material, LDL assay (human LDL): 82%

CC(C)(C)c1cc(COCCCCCCCc2cccnc2)cc(C(C)(C)C)c1O [3/188, 2,6-Di-tert-butyl-4-[9-(3-pyridyl)-2-oxanonyl]phenol]
inhibition at 50 µM [1]: 63% | Mean change (Δ mean reduction) of the concentration of TBA-reactive material, trilinolenine assay [2]: 66% | Mean change (Δ mean reduction) of the concentration of TBA-reactive material after incubation of endothelial cells with LDL [3]: 54% | viability at 20 µM [3]: 79% | inhibition in vivo at 200 µmol/kg (triglycerides; 4 h, Time 240'): 53% | inhibition in vivo at 200 µmol/kg (triglycerides; 6 h, Time 360'): 40% | Mean change (Δ mean reduction) of the concentration of TBA-reactive material, LDL assay (human LDL): 71%

CC(C)(C)c1cc(CCCOCCCc2cccnc2)cc(C(C)(C)C)c1O [3/190, 2,6-Di-tert-butyl-4-[7-(3-pyridyl)-4-oxaheptyl]phenol]
inhibition at 50 µM [1]: 91% | Mean change (Δ mean reduction) of the concentration of TBA-reactive material, trilinolenine assay [2]: 72% | Mean change (Δ mean reduction) of the concentration of TBA-reactive material after incubation of endothelial cells with LDL [3]: 36% | viability at 20 µM [3]: 65% | inhibition in vivo at 200 µmol/kg (triglycerides; 4 h, Time 240'): 56% | inhibition in vivo at 200 µmol/kg (triglycerides; 6 h, Time 360'): 28% | Mean change (Δ mean reduction) of the concentration of TBA-reactive material, LDL assay (human LDL): 89%

CC(C)(C)c1cc(CCCOCCCCCc2cccnc2)cc(C(C)(C)C)c1O [3/191, 2,6-Di-tert-butyl-4-[9-(3-pyridyl)-4-oxanonyl)phenol]
inhibition at 50 µM [1]: 79% | Mean change (Δ mean reduction) of the concentration of TBA-reactive material, trilinolenine assay [2]: 76% | Mean change (Δ mean reduction) of the concentration of TBA-reactive material after incubation of endothelial cells with LDL [3]: 33% | viability at 20 µM [3]: 63% | inhibition in vivo at 200 µmol/kg (triglycerides; 4 h, Time 240'): 37% | inhibition in vivo at 200 µmol/kg (triglycerides; 6 h, Time 360'): 32% | Mean change (Δ mean reduction) of the concentration of TBA-reactive material, LDL assay (human LDL): 86%

CC(C)(C)c1cc(COCCCCCc2cccnc2)cc(C(C)(C)C)c1O [3/192, 2,6-Di-tert-butyl-4-[7-(3-pyridyl)-2-oxaheptyl]phenol]
inhibition at 50 µM [1]: 95% | Mean change (Δ mean reduction) of the concentration of TBA-reactive material, trilinolenine assay [2]: 74% | Mean change (Δ mean reduction) of the concentration of TBA-reactive material after incubation of endothelial cells with LDL [3]: 47% | viability at 20 µM [3]: 79% | inhibition in vivo at 200 µmol/kg (triglycerides; 4 h, Time 240'): 44% | inhibition in vivo at 200 µmol/kg (triglycerides; 6 h, Time 360'): 53% | Mean change (Δ mean reduction) of the concentration of TBA-reactive material, LDL assay (human LDL): 86%
